Experimental data taken from patent US12384744B2, “Enzyme-cleavable methadone prodrugs and methods of use thereof” (Ensysce Biosciences Inc., priority 2021, dated 2025).

System: trypsin
Test: Digestion with trypsin (trypsin digestion of methadone prodrugs and release of methadone)
Assay type: biochemical
Protocol: FIG. 6 depicts an example of trypsin digestion of methadone prodrugs according to certain embodiments. All pro-drugs are digested fully within 8-24 h. The pro-drug with 1-methylethyl linker is slightly slower, requiring 24-48 h.

CC=C(OC(=O)N(C)C(C)CNC(=O)[C@H](CCCNC(=N)N)NC(=O)c1ccccc1)C(CC(C)N(C)C)(c1ccccc1)c1ccccc1 (stereo partly drawn) [pro-drug with 1-methylethyl linker, 6-(dimethylamino)-4,4-diphenylhept-2-en-3-yl (1-((S)-2-benzamido-5-guanidinopentanamido)propan-2-yl)(methyl)carbamate]
time until pro-drug is digested fully by trypsin (FIG. 6): 24 to 48 h
release of methadone from the release intermediate after trypsin digestion (FIG. 6 and FIGS. 7A-7D, result in words): rapid release to methadone
